The values below are quoted from earlier work in Sander's compilation of Henry's law constants (doi:10.1007/978-1-4612-3850-8_1).

Structures are written as SMILES. Values joined by “and” are separate entries in the source; they are usually repeats but may differ in a detail not shown here. Equal entries are not always repeated.

Data set [1] is described as follows: Henry solubility constant Hcp at 298.15 K (mol/(m3 Pa)). As to conditions: reference: Suntio et al. (1988); cited value.
A short description of data set [2]: Henry solubility constant Hcp at 293 K (mol/(m3 Pa)). The note with it: reference: Suntio et al. (1988); cited value.

Regarding `Clc1ccc(C(c2ccc(Cl)cc2)C(Cl)(Cl)Cl)cc1` [1,1,1-trichloro-2,2-bis-(4-chlorophenyl)-ethane], the “Henry solubility constant Hcp” value in data set [1] was 0.17.

`ClC(Cl)=C(c1ccc(Cl)cc1)c1ccc(Cl)cc1` [1,1-dichloro-2,2-bis-(4-chlorophenyl)-ethene]: the “Henry solubility constant Hcp” value in data set [1] is 0.45.

For the compound `CC1=CC(=O)CC(C)(C)C1` [3,5,5-trimethyl-2-cyclohexen-1-one], in data set [2], the “Henry solubility constant Hcp at 293 K” value is 1.8.

On to `CNC(=O)O/N=C/C(C)(C)SC` [aldicarb], for which the “Henry solubility constant Hcp at 293 K” value in data set [2] is 1.9.

Take `ClC1=C(Cl)[C@]2(Cl)C3C(Cl)C(Cl)CC3[C@@]1(Cl)C2(Cl)Cl` (some centres undefined) [chlordane]: the “Henry solubility constant Hcp” value in data set [1] was 0.2 and 0.11.

As to `ClC1=C(Cl)[C@]2(Cl)[C@@H]3[C@@H]4C[C@@H]([C@H]5O[C@@H]45)[C@@H]3[C@@]1(Cl)C2(Cl)Cl` [dieldrin], the “Henry solubility constant Hcp at 293 K” value in data set [2] was 50.

As for `ClC1=C(Cl)[C@]2(Cl)[C@@H]3[C@H]4C[C@H]([C@@H]5O[C@H]45)[C@@H]3[C@@]1(Cl)C2(Cl)Cl` [endrin], in data set [1], the “Henry solubility constant Hcp” value is 5600.

`ClC1(Cl)C2(Cl)C3(Cl)C4(Cl)C(Cl)(Cl)C5(Cl)C3(Cl)C1(Cl)C5(Cl)C24Cl` (centres undefined) [mirex]: in data set [2], the “Henry solubility constant Hcp at 293 K” value is 0.00099.

For `Clc1ccc(C(c2ccccc2Cl)C(Cl)Cl)cc1` (centres undefined) [mitotane], the “Henry solubility constant Hcp” value in data set [1] is 560.

Turning to `ClC(Cl)=C(c1ccc(Cl)cc1)c1ccccc1Cl` [o,p'-DDE], the “Henry solubility constant Hcp at 293 K” value in data set [2] was 0.14.

Consider `C=CC=O` [propenal], for which the “Henry solubility constant Hcp at 293 K” value in data set [2] is 0.18.

On to `ClC1C(Cl)C(Cl)C(Cl)C(Cl)C1Cl` (stereo not drawn) [α-1,2,3,4,5,6-hexachlorocyclohexane], for which, in data set [1], the “Henry solubility constant Hcp” value was 1.8.

With `ClC1C(Cl)C(Cl)C(Cl)C(Cl)C1Cl` (stereo not drawn) [β-1,2,3,4,5,6-hexachlorocyclohexane], in data set [1], the “Henry solubility constant Hcp” value was 56.

For `ClC1C(Cl)C(Cl)C(Cl)C(Cl)C1Cl` (centres undefined) [γ-1,2,3,4,5,6-hexachlorocyclohexane], in data set [2], the “Henry solubility constant Hcp at 293 K” value is 20.
